Assay results as given in patent US6503935B1, “Imidazoles and related compounds as α1A agonists” (Abbott Laboratories, priority 1998, dated 2003).
Counter-ions that a name gives are not always drawn. Like-named read-outs stand apart in the source and are kept apart here.

Columns and labels:
[1] = target: T1, α1A (rat submaxillary gland) (Rattus norvegicus, UniProt P43140); assay: Radioligand binding with [3H]-prazosin, α1A
T1 construct: α1A (rat submaxillary gland); from tissue; host or cells: rat submaxillary gland
T1 sequence (P43140 1-466): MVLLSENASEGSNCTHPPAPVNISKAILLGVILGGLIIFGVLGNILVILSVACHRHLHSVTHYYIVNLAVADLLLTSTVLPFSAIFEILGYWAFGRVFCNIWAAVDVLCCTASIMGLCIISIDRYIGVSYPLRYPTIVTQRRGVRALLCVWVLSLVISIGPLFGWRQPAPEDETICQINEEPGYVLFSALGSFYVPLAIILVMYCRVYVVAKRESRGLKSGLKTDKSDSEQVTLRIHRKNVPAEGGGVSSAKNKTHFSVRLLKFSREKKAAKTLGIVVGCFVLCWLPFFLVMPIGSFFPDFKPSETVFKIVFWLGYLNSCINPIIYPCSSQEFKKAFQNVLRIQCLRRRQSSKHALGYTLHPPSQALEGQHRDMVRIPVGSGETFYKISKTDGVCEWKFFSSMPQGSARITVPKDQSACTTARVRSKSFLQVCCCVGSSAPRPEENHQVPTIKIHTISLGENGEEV
Description: (§1) For purposes of discussing α1 adrenoceptor subtypes, the IUPHAR convention of using lower case letters to define molecular clones and upper case letters to indicate pharmacologically defined adrenoceptors has been followed. Compounds of formula I were evaluated in radioligand binding assays specific for α1A (rat submaxillary gland), α1b (hamster receptor expressed in mouse fibroblasts) and α1d (rat receptor expressed in mouse fibroblasts) using [^3H]-prazosin as the radioligand as described in Knepper, et al. J. Pharm.

[2] = target: T2, α1b (hamster receptor expressed in mouse fibroblasts) (Mesocricetus auratus, UniProt P18841); assay: Radioligand binding with [3H]-prazosin, α1b
T2 construct: expressed in transfected cells; host or cells: mouse fibroblasts
T2 sequence (P18841 1-515): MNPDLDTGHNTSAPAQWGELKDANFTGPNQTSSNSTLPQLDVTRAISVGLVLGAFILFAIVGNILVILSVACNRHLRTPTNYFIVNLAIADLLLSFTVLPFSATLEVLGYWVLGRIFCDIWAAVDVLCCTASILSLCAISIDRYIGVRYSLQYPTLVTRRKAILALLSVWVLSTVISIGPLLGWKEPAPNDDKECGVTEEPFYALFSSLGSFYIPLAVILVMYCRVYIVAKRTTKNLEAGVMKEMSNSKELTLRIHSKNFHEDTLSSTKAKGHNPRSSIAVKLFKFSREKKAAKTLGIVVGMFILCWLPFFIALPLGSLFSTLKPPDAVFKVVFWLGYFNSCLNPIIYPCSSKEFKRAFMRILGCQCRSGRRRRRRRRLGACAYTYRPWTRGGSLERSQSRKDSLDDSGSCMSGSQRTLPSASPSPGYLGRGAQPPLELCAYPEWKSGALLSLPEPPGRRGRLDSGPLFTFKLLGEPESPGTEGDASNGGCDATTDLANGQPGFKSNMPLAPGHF
Description: as §1

[3] = target: T3, α1d (rat receptor expressed in mouse fibroblasts) (Rattus norvegicus, UniProt P23944); assay: Radioligand binding with [3H]-prazosin, α1d
T3 construct: expressed in transfected cells; host or cells: mouse fibroblasts
T3 sequence (P23944 1-561): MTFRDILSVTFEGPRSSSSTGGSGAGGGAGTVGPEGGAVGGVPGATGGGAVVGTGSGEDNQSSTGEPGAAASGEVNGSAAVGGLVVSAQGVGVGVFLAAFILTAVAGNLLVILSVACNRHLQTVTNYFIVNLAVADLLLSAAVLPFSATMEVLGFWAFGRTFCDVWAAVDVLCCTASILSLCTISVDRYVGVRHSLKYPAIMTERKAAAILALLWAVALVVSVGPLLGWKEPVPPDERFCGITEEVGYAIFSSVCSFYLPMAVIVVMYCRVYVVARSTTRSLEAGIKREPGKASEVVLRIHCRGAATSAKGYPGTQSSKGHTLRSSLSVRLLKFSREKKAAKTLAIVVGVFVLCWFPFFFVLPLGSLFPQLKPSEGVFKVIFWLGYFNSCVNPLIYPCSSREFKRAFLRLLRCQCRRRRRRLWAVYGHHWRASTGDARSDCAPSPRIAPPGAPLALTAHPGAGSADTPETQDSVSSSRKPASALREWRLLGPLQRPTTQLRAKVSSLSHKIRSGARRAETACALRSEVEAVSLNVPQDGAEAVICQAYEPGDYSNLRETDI
Description: as §1

α1B (rat spleen) = target: T4, α1B (rat spleen) (Rattus norvegicus, UniProt P15823); assay: Agonist contraction of smooth muscle tissue, rat spleen; type: cell-based; conditions: for EC50: read-out: Agonist Tissue Response (pD2) α1B (rat spleen) (converted)
T4 construct: α1B (rat spleen) and α1D (rat aorta) receptors; from tissue; host or cells: rat spleen
T4 sequence (P15823 1-515): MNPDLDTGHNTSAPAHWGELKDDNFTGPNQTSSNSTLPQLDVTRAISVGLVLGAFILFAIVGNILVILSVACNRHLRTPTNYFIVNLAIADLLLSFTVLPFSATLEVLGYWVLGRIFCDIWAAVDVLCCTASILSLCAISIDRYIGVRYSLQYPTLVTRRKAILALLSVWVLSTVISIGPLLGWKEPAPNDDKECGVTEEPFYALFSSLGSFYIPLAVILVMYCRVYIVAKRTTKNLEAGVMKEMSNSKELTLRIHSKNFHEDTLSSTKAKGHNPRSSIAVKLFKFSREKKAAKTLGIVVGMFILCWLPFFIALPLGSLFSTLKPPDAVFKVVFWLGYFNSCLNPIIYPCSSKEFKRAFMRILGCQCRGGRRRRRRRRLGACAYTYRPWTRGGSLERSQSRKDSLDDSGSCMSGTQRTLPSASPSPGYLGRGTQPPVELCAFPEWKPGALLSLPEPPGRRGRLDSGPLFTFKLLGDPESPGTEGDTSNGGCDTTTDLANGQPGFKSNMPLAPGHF

α1A (rabbit urethra) = target: T5, α1A (rabbit urethra) (Oryctolagus cuniculus, UniProt O02824); assay: Agonist contraction of smooth muscle tissue, rabbit urethra; type: cell-based; conditions: for EC50: read-out: Agonist Tissue Response (pD2) α1A (rab ureth) (converted)
T5 construct: tested for α1A functional activity using rabbit urethra; from tissue; host or cells: rabbit urethra
T5 sequence (O02824 1-466): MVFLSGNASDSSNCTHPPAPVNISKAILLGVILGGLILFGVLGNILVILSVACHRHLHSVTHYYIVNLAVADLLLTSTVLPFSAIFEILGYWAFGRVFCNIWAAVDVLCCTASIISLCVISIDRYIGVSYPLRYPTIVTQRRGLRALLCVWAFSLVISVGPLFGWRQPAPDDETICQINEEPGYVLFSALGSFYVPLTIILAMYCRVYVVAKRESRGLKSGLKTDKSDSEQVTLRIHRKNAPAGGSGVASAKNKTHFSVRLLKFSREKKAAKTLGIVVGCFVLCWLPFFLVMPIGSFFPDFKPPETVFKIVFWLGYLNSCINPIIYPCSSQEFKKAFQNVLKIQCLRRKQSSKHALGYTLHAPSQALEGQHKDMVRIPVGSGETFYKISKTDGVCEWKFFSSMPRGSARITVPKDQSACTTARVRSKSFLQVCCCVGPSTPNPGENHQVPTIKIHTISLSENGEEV
Description: Most of the compounds were tested for α1A functional activity using rabbit urethra as follows. Female New Zealand white rabbits (2.0-3.5 Kg) were sedated with CO2 and decapitated. […] Subsequent experimental conditions were as described above for the other tissues. Agonist concentration response curves were cumulative except for the vas deferens assay in which the transient response made such measurements impractical.

α1D (rat aorta) = target: T6, α1D (rat aorta) (Rattus norvegicus, UniProt P23944); assay: Agonist contraction of smooth muscle tissue, rat aorta; type: cell-based; conditions: for EC50: read-out: Agonist Tissue Response (pD2) α1D (rat aorta) (converted)
T6 construct: α1B (rat spleen) and α1D (rat aorta) receptors; from tissue; host or cells: rat aorta strips, endothelium removed
T6 sequence (P23944 1-561): T3 sequence (P23944 1-561)

[4] = rat submaxillary gland, [3H]-prazosin
[5] = hamster receptor expressed in mouse fibroblasts, [3H]-prazosin, read-out: Radioligand Binding Ki α1b (Hamster)
[6] = rat receptor expressed in mouse fibroblasts, [3H]-prazosin, read-out: Radioligand Binding Ki α1d (Rat)
[7] = Radioligand Binding Ki α1d (Rat), rat receptor expressed in mouse fibroblasts, [3H]-prazosin

Molecule	Ki [1, 4]	Ki [2, 5]	Ki [3, 6]	EC50 (α1A (rabbit urethra); rabbit urethra)	Ki [2]	Ki [3, 7]	further results
5-Chloro-N-[5-(1H-imidazol-5-yl)-5,6,7,8-tetrahydro-1-naphthalenyl]-3-methyl-2,3-dihydro-1-benzothiophene-2-sulfonamide [Example 77]	0.65 µM	0.32 µM	0.111 µM				
Cn1cnc(S(=O)(=O)Nc2cccc3c2CCCC3c2cnc[nH]2)c1 (stereo not shown) [Example 66, N-[5-(1H-imidazol-5-yl)-5,6,7,8-tetrahydro-1-naphthalenyl]-1-methyl-1H-imidazole-4-sulfonamide]	0.366 µM	1.13 µM	0.458 µM				
COc1ccc(S(=O)(=O)Nc2cccc3c2CCCC3c2cnc[nH]2)cc1 (stereo not shown) [Example 71, N-[5-(1H-imidazol-5-yl)-5,6,7,8-tetrahydro-1-naphthalenyl]-4-methoxybenzenesulfonamide]	1.54 µM	1.05 µM	2.29 µM				
Cn1cnc(C2CCCc3c2ccc(O)c3NS(C)(=O)=O)c1 (stereo not shown) [Example 5, N-[2-hydroxy-5-(1-methyl-1H-imidazol-4-yl)-5,6,7,8-tetrahydro-1-naphthalenyl]methanesulfonamide, hydrochloride]							Ki [1]: 0.136 µM; EC50 (α1B (rat spleen)): 9.33 µM; Ki ([2]; read-out: Radioligand Binding Ki α1b (Hamster)): 6.14 µM; EC50 (α1A (rabbit urethra)): 0.513 µM; Ki ([3]; read-out: Radioligand Binding Ki α1d (Rat)): 1.55 µM; EC50 (α1D (rat aorta)): 3.31 µM
O=S(=O)(Nc1cccc2c1CCCC2c1cnc[nH]1)c1cccc2cccnc12 (stereo not shown) [Example 73, N-[5-(1H-imidazol-5-yl)-5,6,7,8-tetrahydro-1-naphthalenyl]-8-quinolinesulfonamide]	1.02 µM	1.19 µM	2.23 µM	17.8 µM			
CS(=O)(=O)Nc1cc(Cc2c[nH]cn2)ccc1O [Example 11, N-[2-hydroxy-5-(1H-imidazol-4-ylmethyl)phenyl]methanesulfonamide, hydrochloride]	0.0822 µM			0.148 µM	1.4 µM	0.311 µM	EC50 (α1B (rat spleen); rat spleen): 1.2 µM; EC50 (α1D (rat aorta); rat aorta, endothelium removed): 0.692 µM
CCS(=O)(=O)Nc1cccc(C(C)c2c[nH]cn2)c1 (stereo not shown) [Example 37, N-{3-[1-(1H-imidazol-4-yl)ethyl]phenyl}ethanesulfonamide, maleate]	0.772 µM			5.37 µM	2.28 µM	0.452 µM	
CS(=O)(=O)Nc1ccc(F)c(Cc2c[nH]cn2)c1 [Example 41, N-[4-fluoro-3-(1H-imidazol-4-ylmethyl)phenyl]methanesulfonamide, maleate]	0.752 µM			13.5 µM	1.63 µM	0.348 µM	
CCS(=O)(=O)Nc1cccc(C(=C2CCCCC2)c2c[nH]cn2)c1 [Example 56]	0.229 µM			16.2 µM	0.0151 µM	0.00198 µM	EC50 (α1D (rat aorta); rat aorta, endothelium removed): > 1000 µM
N-[5,6,7,8-tetrahydro-5-(1H-imidazol-4-yl)-1-naphthalenyl]-2-methylethanesulfonamide, maleate [Example 18]	1.14 µM		2.05 µM				Agonist Tissue Response (pD2) α1B (rat spleen) (α1B (rat spleen); rat spleen): 4.85; Agonist Tissue Response (pD2) α1A (rab ureth) (α1A (rabbit urethra); rabbit urethra): 5.17; Agonist Tissue Response (pD2) α1D (rat aorta) (α1D (rat aorta); rat aorta, endothelium removed): 4.96
O=S(=O)(CCCCl)Nc1cccc2c1CCCC2c1cnc[nH]1 (stereo not shown) [Example 65, 3-Chloro-N-[5-(1H-imidazol-5-yl)-5,6,7,8-tetrahydro-1-naphthalenyl]-1-propanesulfonamide]	1.16 µM	4.4 µM	5.3 µM				
